The values that follow are results of earlier work, collected in article PMC10985535 (RSC Advances, 2024).

This data set deals with CT-DNA.

As to `CC[n+]1c(-c2ccccc2)c2cc(N)ccc2c2ccc(N)cc21.[Br-]` [EtBr], the “Ksv of classical intercalator” value is 10^7 M^−1.
